Target: BTK (Homo sapiens (Human), UniProt Q06187)
Test: Btk kinase assay (HTRF)
Format: biochemical
Settings: [ATP]=80 μM, BTK=3.4 nM; read-out: BTK Inhibition
Procedure, shortened: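 HTRF kinase read-out (665/615 nm ratio, excitation 330 nm) after EDTA quench and 1 h detection incubation. Reaction: 3.4 nM BTK, ATP 80 μM, peptide substrate 1 μM, compound, HEPES pH 7.0 buffer, 1 h; IC50 derived using uninhibited and enzyme-free controls.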

Sequence of BTK (Q06187 whole entry, species assumed): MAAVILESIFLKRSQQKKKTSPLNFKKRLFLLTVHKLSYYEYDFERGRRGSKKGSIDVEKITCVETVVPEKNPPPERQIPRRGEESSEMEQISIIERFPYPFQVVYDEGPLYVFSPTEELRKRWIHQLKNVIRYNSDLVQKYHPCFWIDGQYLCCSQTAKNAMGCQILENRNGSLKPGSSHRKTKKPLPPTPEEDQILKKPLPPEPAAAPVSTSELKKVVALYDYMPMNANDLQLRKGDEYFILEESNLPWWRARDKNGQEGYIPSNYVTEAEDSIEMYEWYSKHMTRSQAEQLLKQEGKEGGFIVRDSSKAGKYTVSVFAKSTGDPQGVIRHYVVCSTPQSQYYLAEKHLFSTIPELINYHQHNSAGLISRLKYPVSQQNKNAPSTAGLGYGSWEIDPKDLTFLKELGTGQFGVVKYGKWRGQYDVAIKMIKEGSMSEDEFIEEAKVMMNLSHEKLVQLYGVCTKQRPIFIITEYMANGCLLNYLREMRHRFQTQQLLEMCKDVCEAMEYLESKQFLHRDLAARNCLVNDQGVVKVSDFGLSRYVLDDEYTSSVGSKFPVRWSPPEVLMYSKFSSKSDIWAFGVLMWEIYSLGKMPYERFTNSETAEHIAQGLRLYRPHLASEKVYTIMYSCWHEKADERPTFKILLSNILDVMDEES

SMILES | IC50 [nM]
C=CC(=O)Nc1cccc(-n2c(=O)n(-c3ccc(NC(=O)c4ccc(C(F)(F)F)cc4)cc3)c3cnccc32)c1 [Example 263, N-(4-(1-(3-acrylamidophenyl)-2-oxo-1,2-dihydro-3H-imidazo[4,5-c]pyridin-3-yl)phenyl)-4-(trifluoromethyl)benzamide] | 100 to 1000
C=CC(=O)N1CC[C@@H](n2c(=O)n(-c3ccc(Oc4cccc(Cl)c4OC)cc3)c3cnccc32)C1 [Example 63, (R)-1-(1-acryloylpyrrolidin-3-yl)-3-(4-(3-chloro-2-methoxyphenoxy)phenyl)-1H-imidazo[4,5-c]pyridine-2(3H)-one] | 10 to 100
C=CC(=O)N1CCC[C@@H](n2c(=O)n(-c3ccc(Oc4cccc(Cl)c4F)cc3)c3cnccc32)C1 [Example 59, (R)-1-(1-acryloylpiperidin-3-yl)-3-(4-(3-chloro-2-fluorophenoxy)phenyl)-1H-imidazo[4,5-c]pyridin-2(3H)-one] | 10 to 100
C=CC(=O)Nc1cccc(-n2c(=O)n(-c3ccc(Oc4ccc(Cl)c(F)c4)cc3)c3cnccc32)c1 [Example 160, N-(3-(3-(4-(4-chloro-3-fluorophenoxy)phenyl)-2-oxo-2,3-dihydro-1H-imidazo[4,5-c]pyridin-1-yl)phenyl)acrylamide] | 100 to 1000
C=CC(=O)N1CC[C@@H](n2c(=O)n(-c3cccc(Oc4ccc(OC)cc4)c3)c3cnccc32)C1 [Example 17, (R)-1-(1-acryloylpyrrolidin-3-yl)-3-(3-(4-methoxyphenoxy)phenyl)-1H-imidazo[4,5-c]pyridin-2(3H)-one] | 100 to 1000
C=CC(=O)N1CCC[C@@H](n2c(=O)n(-c3ccc(Oc4cccc(OC)c4)cc3)c3cnccc32)C1 [Example 118, (R)-1-(1-acryloylpiperidin-3-yl)-3-(4-(3-methoxyphenoxy)phenyl)-1H-imidazo[4,5-c]pyridin-2(3H)-one] | 10 to 100
C=CC(=O)N1CC[C@@H](n2c(=O)n(-c3ccc(OCc4ccccc4F)c(Cl)c3)c3cnccc32)C1 [Example 236, (R)-1-(1-acryloylpyrrolidin-3-yl)-3-(3-chloro-4-((2-fluorobenzyl)oxy)phenyl)-1,3-dihydro-2H-imidazo[4,5-c]pyridin-2-one] | 100 to 1000
C=CC(=O)N1CC[C@@H](n2c(=O)n(-c3ccc(Oc4ccccc4)cc3)c3cnccc32)C1 [Example 33, (R)-1-(1-acryloylpyrrolidin-3-yl)-3-(4-phenoxyphenyl)-1H-imidazo[4,5-c]pyridin-2(3H)-one] | 10 to 100
C=CC(=O)N1CCC[C@@H](n2c(=O)n(-c3ccc(Oc4cccc(Cl)c4C)cc3)c3cnccc32)C1 [Example 134, (R)-1-(1-acryloylpiperidin-3-yl)-3-(4-(3-chloro-2-methylphenoxy)phenyl)-1H-imidazo[4,5-c]pyridin-2(3H)-one] | 10 to 100
C=CC(=O)N1CC[C@@H](n2c(=O)n(-c3ccc(NC(=O)c4ccc(OC)c(C(F)(F)F)c4)cc3)c3cnccc32)C1 [Example 268, (R)-N-(4-(1-(1-acryloylpyrrolidin-3-yl)-2-oxo-1H-imidazo[4,5-c]pyridin-3(2H)-yl)phenyl)-4-methoxy-3-(trifluoromethyl)benzamide] | 100 to 1000
C=CC(=O)N1CC[C@@H](n2c(=O)n(-c3ccc(C(=O)N4CCOCC4)cc3)c3cnccc32)C1 [Example 250, (R)-1-(1-acryloylpyrrolidin-3-yl)-3-(4-(morpholine-4-carbonyl)phenyl)-1H-imidazo[4,5-c]pyridin-2(3H)-one] | 1000 to 10000
C=CC(=O)N1CC[C@@H](n2c(=O)n(-c3ccc(Oc4ccccc4)cc3)c3c(N)cccc32)C1 [Example 190, (R)-1-(1-acryloylpyrrolidin-3-yl)-4-amino-3-(4-phenoxyphenyl)-1H-benzo[d]imidazol-2(3H)-one] | 100 to 1000
CN(C(=O)/C=C/CN(C)C1CC1)c1cccc(-n2c(=O)n(-c3ccc(Oc4ccccc4)cc3)c3c(N)ncnc32)c1 [Example 174, (E)-N-(3-(6-amino-8-oxo-7-(4-phenoxyphenyl)-7H-purin-9(8H)-yl)phenyl)-4-(cyclopropyl(methyl)amino)-N-methylbut-2-enamide] | 10 to 100
C=CC(=O)Nc1cccc(-n2c(=O)n(-c3ccc(Oc4cccc(Cl)c4)c(F)c3)c3cnccc32)c1 [Example 50] | 100 to 1000
C=CC(=O)Nc1cccc(-n2c(=O)n(-c3ccc(Oc4cccc(Cl)c4)cc3)c3cnccc32)c1 [Example 69, N-(3-(3-(4-(3-chlorophenoxy)phenyl)-2-oxo-2,3-dihydro-1H-imidazo[4,5-c]pyridin-1-yl)phenyl)acrylamide] | 10 to 100
C=CC(=O)N1CC[C@@H](n2c(=O)n(-c3ccc(Oc4cccc(OC)c4F)cc3)c3cnccc32)C1 [Example 191, (R)-1-(1-acryloylpyrrolidin-3-yl)-3-(4-(2-fluoro-3-methoxyphenoxy)phenyl)-1H-imidazo[4,5-c]pyridin-2(3H)-one] | ≤ 10
C=CC(=O)N1CC[C@@H](n2c(=O)n(-c3ccc(Oc4cccc(OC)c4F)cc3)c3cncc(C)c32)C1 [Example 172, (R)-1-(1-acryloylpyrrolidin-3-yl)-3-(4-(2-fluoro-3-methoxyphenoxy)phenyl)-7-methyl-1H-imidazo[4,5-c]pyridin-2(3H)-one] | ≤ 10

SMILES | IC50 [nM]
C=CC(=O)Nc1cccc(-n2c(=O)n(-c3ccc(OCc4ccccc4Cl)cc3)c3cnccc32)c1 [Example 231, N-(3-(3-(4-((2-chlorobenzyl)oxy)phenyl)-2-oxo-2,3-dihydro-1H-imidazo[4,5-c]pyridin-1-yl)phenyl)acrylamide] | 10 to 100
C=CC(=O)N1CC[C@@H](n2c(=O)n(-c3ccc(Oc4cccc(F)c4Cl)cc3)c3cnccc32)C1 [Example 102, (R)-1-(1-acryloylpyrrolidin-3-yl)-3-(4-(2-chloro-3-fluorophenoxy)phenyl)-1,3-dihydro-2H-imidazo[4,5-c]pyridin-2-one] | 10 to 100
C=CC(=O)N1CC[C@@H](n2c(=O)n(-c3ccc(OCc4ccc(C(F)(F)F)cc4)cc3)c3cnccc32)C1 [Example 212, (R)-1-(1-acryloylpyrrolidin-3-yl)-3-(4-((4-(trifluoromethyl)benzyl)oxy)phenyl)-1H-imidazo[4,5-c]pyridin-2(3H)-one] | 100 to 1000
C=CC(=O)Nc1cccc(-n2c(=O)n(-c3ccc(Oc4cc(Cl)cc(OC)c4)cc3)c3cnccc32)c1 [Example 71, N-(3-(3-(4-(3-chloro-5-methoxyphenoxy)phenyl)-2-oxo-2,3-dihydro-1H-imidazo[4,5-c]pyridin-1-yl)phenyl)acrylamide] | 100 to 1000
O=C(O)C(=O)N1CCCC(n2c(=O)n(-c3ccc(Oc4ccccc4)cc3)c3cnccc32)C1 (stereo not drawn) [Example 192, 2-oxo-2-(3-(2-oxo-3-(4-phenoxyphenyl)-2,3-dihydro-1H-imidazo[4,5-c]pyridin-1-yl)piperidin-1-yl)acetic acid] | 1000 to 10000
C=CC(=O)Nc1cccc(-n2c(=O)n(-c3ccc(OCc4ccc(Cl)cc4F)cc3)c3cnccc32)c1 [Example 245, N-(3-(3-(4-((4-chloro-2-fluorobenzyl)oxy)phenyl)-2-oxo-2,3-dihydro-1H-imidazo[4,5-c]pyridin-1-yl)phenyl)acrylamide] | 100 to 1000
CC#CC(=O)N1CC[C@@H](n2c(=O)n(-c3ccc(Oc4cccc(OC)c4F)cc3)c3cncc(C)c32)C1 [Example 173, (R)-1-(1-(but-2-ynoyl)pyrrolidin-3-yl)-3-(4-(2-fluoro-3-methoxyphenoxy)phenyl)-7-methyl-1H-imidazo[4,5-c] pyridin-2(3H)-one] | 10 to 100
C=CC(=O)N1CC[C@@H](n2c(=O)n(-c3cccc(-c4ccccc4C)c3)c3cnccc32)C1 [Example 273, (R)-1-(1-acryloylpyrrolidin-3-yl)-3-(2′-methyl-[1,1′-biphenyl]-3-yl)-1H-imidazo[4,5-c]pyridin-2(3H)-one] | 100 to 1000
C=CC(=O)Nc1cccc(-n2c(=O)n(-c3ccc(OCc4ccccc4)cc3)c3cnccc32)c1 [Example 239] | 100 to 1000
C=CC(=O)N1CC[C@@H](n2c(=O)n(-c3ccc(Oc4ccc(C(F)(F)F)cc4)c(Cl)c3)c3cnccc32)C1 [Example 43, (R)-1-(1-acryloylpyrrolidin-3-yl)-3-(3-chloro-4-(4-(trifluoromethyl)phenoxy)phenyl)-1H-imidazo[4,5-c]pyridin-2(3H)-one] | 100 to 1000
C=CC(=O)Nc1cccc(-n2c(=O)n(-c3ccc(NC(=O)c4ccccc4OC)cc3)c3cnccc32)c1 [Example 258, N-(4-(1-(3-acrylamidophenyl)-2-oxo-1H-imidazo[4,5-c]pyridin-3(2H)-yl)phenyl)-2-methoxybenzamide] | 10 to 100
C=CC(=O)Nc1cccc(-n2c(=O)n(-c3ccc(Oc4cc(F)cc(Cl)c4)cc3)c3cnccc32)c1 [Example 129, N-(3-(3-(4-(3-chloro-5-fluorophenoxy)phenyl)-2-oxo-2,3-dihydro-1H-imidazo[4,5-c]pyridin-1-yl)phenyl)acrylamide] | 100 to 1000
C=CC(=O)Nc1cccc(-n2c(=O)n(-c3ccc(Oc4ccc(OC)cc4)cc3)c3cnccc32)c1 [Example 80, N-(3-(3-(4-(4-methoxyphenoxy)phenyl)-2-oxo-2,3-dihydro-1H-imidazo[4,5-c]pyridin-1-yl)phenyl)acrylamide] | 100 to 1000
C=CC(=O)N1CC[C@@H](n2c(=O)n(-c3ccc(Oc4ccccc4)cc3)c3c(C#N)nccc32)C1 [Example 65] | 1000 to 10000
C=CC(=O)Nc1cccc(-n2c(=O)n(-c3ccc(Oc4cc(Cl)cc(Cl)c4)cc3)c3cnccc32)c1 [Example 130, N-(3-(3-(4-(3,5-dichlorophenoxy)phenyl)-2-oxo-2,3-dihydro-1H-imidazo[4,5-c]pyridin-1-yl)phenyl)acrylamide] | 100 to 1000
C=CC(=O)N1CCC[C@@H](n2c(=O)n(-c3ccc(Oc4cccc(C)c4)c(F)c3)c3cnccc32)C1 [Example 105, (R)-1-(1-acryloylpiperidin-3-yl)-3-(3-fluoro-4-(m-tolyloxy)phenyl)-1H-imidazo[4,5-c]pyridin-2(3H)-one] | 10 to 100
